Reference: PMC4942781, “A sodium channel inhibitor ISTX-I with a novel structure provides a new hint at the evolutionary link between two toxin folds” (Scientific Reports, 2016)
Bridge positions count the residues as written; N and C are the ends. Ends that are not written are not given here.

Tested on: TTX-r sodium channel
Assay: Whole-cell patch clamp, TTX-r sodium currents in rat DRG neurons
Assay type: cell-based
Description: The effects of ISTX-I on voltage-gated ion channels were investigated in the dorsal root ganglion (DRG). DRG neurons were held at −80 mV for over 4 min to allow adequate equilibration between the micropipette solution and the cell interior, and then current traces were evoked using a 50 ms step depolarization to −10 mV every second.
Figure 3 Effects of ISTX-I on voltage-gated ion channels in rat DRG neurons. […] (C) Dose-dependent inhibition of ISTX-I on the TTX-s Nav channel (n = 5). (D) Current-voltage (I-V) relationship for the TTX-s Nav channel currents before (solid circles) and after (open circles) the application of 5 μM ISTX-I (n = 5). […]
DRG neurons with a large diameter (>[…]) and those with a relatively small diameter (<[…]) were chosen by measuring TTX-s and TTX-r currents, respectively. […] Potassium, calcium, and sodium currents were recorded in experimental cells using whole-cell patch-clamp recordings at room temperature, which were performed with an HEK EPC10 patch-clamp amplifier. […] Experimental data were acquired and analyzed using the programs patch master and Sigmaplot 9.0 (Sigma, USA). […]
Currents were recorded from experimental cells using whole-cell patch clamptechnique at room temperature (22–25 °C). […] K+ currents were recorded using an internal solution containing the followings (in mM): KCl 140, MgCl2 2.5, HEPES 10, and EGTA 11 (pH 7.2). […]

With “LCSENGDCAADECCVDTVFEGDMVTRSCEKTTGNFTECPGLTPIA (disulfide 2-14, 8-28, 13-38) [ISTX-I]” the “effect on TTX-r sodium channels (summary)” value was “not TTX-r sodium channels” and the “effect on TTX-r sodium channel currents” value (10 μM ISTX-I, 100 nM TTX to separate TTX-r currents) was “no effect”.
